Experimental data: patent US20170115269A1, “ACYLCARNITINE COMPOSITION” (SEKISUI MEDICAL CO., LTD., priority 2014, published 2017)
Values belong to the molecule of their own block, whether it stands above or below them.

Assay: Storage stability of acylcarnitine-stable isotopes in methanol solution at room temperature (Reference Example 1, LC-MS/MS residual rate)
Type: physicochemical
Experimental: Acylcarnitine solutions were acquired by dissolving acylcarnitine-stable isotopes into methanol to concentrations listed in Table 3. The acylcarnitine-stable isotopes were measured under the following conditions. The acylcarnitine solutions were measured immediately before storage (prepared at the time of use) and after storage for predetermined periods, and the residual rate (%) was calculated from the acquired peak area ratio using Equation 2 described below.
System: LC-20A series (manufactured by Shimadzu Corporation) and 4000 QTRAP (manufactured by AB Sciex) […]
Mobile phase: mobile phase A, 0.5% (v/v) formic acid aqueous solution mobile phase B, 500 mmol/L ammonium formate aqueous solution: 500 mmol/L ammonium hydroxide (9:1)/methanol=1/9
Analysis time: 70 minutes
LC column: Scherzo SS-C18, 3 μm, 3.0×150 mm (manufactured by Imtact Corporation) Column temperature: 50° C.
Sample injection amount: 5 μL
Ionization mode: ESI (electrospray ionization)
Ion source: Turbo IonSpray
Q1/Q3 is described in Table 3.

[1] = storage period 2 M (two months)

Res. Rt (Residual Rate) (storage period 1 M (one month)): 100.9%
Res. Rt (Residual Rate) [1]: 100.2%
Structure (SMILES): [2H]C([2H])([2H])[N+](C[C@H](O)CC(=O)[O-])(C([2H])([2H])[2H])C([2H])([2H])[2H] [^2H9-Carnitine]

Res. Rt (Residual Rate) (storage period 1 M (one month)): 97.4%
Res. Rt (Residual Rate) [1]: 38.5%
Structure (SMILES): [2H]C([2H])([2H])[N+](C)(C)CC(CC(=O)[O-])OC(=O)CC (stereo not shown) [^2H3-Propionylcarnitine]

Res. Rt (Residual Rate) (storage period 1 M (one month)): 103.9%
Res. Rt (Residual Rate) [1]: 67.8%
Structure (SMILES): [2H]C([2H])([2H])[N+](CC(CC(=O)[O-])OC(=O)CCCCCCCCCCCCC)(C([2H])([2H])[2H])C([2H])([2H])[2H] (stereo not shown) [^2H9-Myristoylcarnitine]

Res. Rt (Residual Rate) (storage period 1 M (one month)): 100.3%
Res. Rt (Residual Rate) [1]: 99.4%
Structure (SMILES): [2H]C([2H])([2H])[N+](CC(CC(=O)[O-])OC(=O)CC(C)C)(C([2H])([2H])[2H])C([2H])([2H])[2H] (stereo not shown) [^2H9-Isovalerylcarnitine]

Second part, the molecule before the results:

Structure (SMILES): [2H]C([2H])([2H])[N+](C)(C)CC(CC(=O)[O-])OC(=O)CCC (stereo not shown) [^2H3-Butyrylcarnitine]
Res. Rt (Residual Rate) (storage period 1 M (one month)): 101.7%
Res. Rt (Residual Rate) [1]: 63.8%

Structure (SMILES): [2H]C([2H])([2H])[N+](C)(C)CC(CC(=O)[O-])OC(=O)CCCCCCCCCCCCCCCCC (stereo not shown) [^2H3-Octadecanoylcarnitine]
Res. Rt (Residual Rate) (storage period 1 M (one month)): 103.7%
Res. Rt (Residual Rate) [1]: 69.6%

Structure (SMILES): [2H]C([2H])([2H])[N+](C)(C)CC(CC(=O)[O-])OC(=O)CC(C)(C)O (stereo not shown) [^2H3-(3-Hydroxyisovaleryl)-carnitine]
Res. Rt (Residual Rate) (storage period 1 M (one month)): 99.9%
Res. Rt (Residual Rate) [1]: 97.9%

Structure (SMILES): [2H]C([2H])([2H])[N+](C)(C)CC(CC(=O)[O-])OC(=O)CCCCCCCCCCC (stereo not shown) [^2H3-Dodecanoylcarnitine]
Res. Rt (Residual Rate) (storage period 1 M (one month)): 103.1%
Res. Rt (Residual Rate) [1]: 84.9%

Structure (SMILES): [2H]C([2H])([2H])[N+](C)(C)CC(CC(=O)[O-])OC(=O)CCCC(=O)O (stereo not shown) [^2H3-Glutarylcarnitine]
Res. Rt (Residual Rate) (storage period 1 M (one month)): 99.3%
Res. Rt (Residual Rate) [1]: 63.3%

Structure (SMILES): [2H]C([2H])([2H])[N+](C)(C)CC(CC(=O)[O-])OC(=O)CCCCCCC (stereo not shown) [^2H3-Octanoylcarnitine]
Res. Rt (Residual Rate) (storage period 1 M (one month)): 103.3%
Res. Rt (Residual Rate) [1]: 70.3%

Structure (SMILES): [2H]C([2H])([2H])[N+](C)(C)CC(CC(=O)[O-])OC(=O)CCCCCCCCCCCCCCC (stereo not shown) [^2H3-Palmitoylcarnitine]
Res. Rt (Residual Rate) (storage period 1 M (one month)): 101.2%
Res. Rt (Residual Rate) [1]: 62.6%
